Measured values from article PMC2532997, “Methoxylation enhances stilbene bioactivity in Caenorhabditis elegans” (BMC Pharmacology, 2008).

How the values were obtained:
[1] = system: gld-1(q485) germline tumors; experiment: Germline tumor growth assay (DAPI-stained tumor area); type: in vivo, Caenorhabditis elegans; conditions: 100 μM dose, four days treatment
Description: To assess the effects of methoxylation on antitumor activity in vivo, tumor area was measured in gld-1(q485) adults treated for four days with either resveratrol trimethylether, desoxyrhapontigenin or pterostilbene, which are methoxylated and toxic to adults, or resveratrol, which is hydroxylated and nontoxic. As controls, germline tumor area was also measured in animals treated with carrier only (ethanol) or with 5-fluoro-2'-deoxyuradine (FUDR), a thymidylate synthetase inhibitor that blocks cell proliferation. […] After four days of treatment, animals were collected and germline tumors were visualized by DAPI staining to visualize germcell nuclei. Because the level of DAPI staining was not quantitative between animals, we DAPI signal intensity was not used as a measure of tumor size. Rather, tumor size was directly measured as the area of the DAPI-stained gonad.
(§1) Resveratrol and picetannol were obtained from commercial sources (Sigma-Aldrich, Inc. and Calbiochem-Novobiochem Corp., respectively). The methoxylated stilbenes pinostilbene, desoxyrhapontigenin, 3-hydroxy-5,4'-dimethoxystilbene and pterostilbene (Figure 1) were synthesized by partial methylation of trans-resveratrol as previously reported. The methoxylated stilbenes were purified by preparative layer chromatography (Merck Silica gel 60 F254; EMD Chemicals Inc., Gibbstown, NJ) using the developing solvent chloroform:methanol (96:4) with 1% formic acid. The Rf values for pterostilbene, 3-hydroxy-5,4'-dimethoxystilbene, pinostilbene and desoxyrhapontigenin are 0.61, 0.57, 0.28, and 0.20, respectively. These stilbenes were identified from their ^1H-NMR spectra (Bruker 400 MHz; Bruker, Billerica, MA). All stilbenes were dissolved in ethanol to 25 mg/mL before use. 5-Fluoro-deoxyuracil (Sigma Chemical Co.) was dissolved to 1 mg/mL in sterile water and stored frozen at -20°C until use. For treating C. elegans adults, each compound was added in a 200 μL volume to the top of a 1-day old bacterial lawn grown on NGM medium to final concentrations as indicated. Compounds were allowed 2 hours to diffuse through the agar medium before animals were added.
The gld-1(q485) mutation causes a defect in oocyte development that results in growth of germline tumors that fill the somatic gonad, eventually leading to the animal's death. To examine the effects of the stilbenes on gld-1(q485) germline tumors, day 0 adults were placed on stilbene-containing medium in the presence of OP50 bacteria as food source. After 4 days at 20°C, animals were fixed in methanol and germcell nuclei were visualized by staining with DAPI. Images were collected with the entire animal in view using the 4× objective on a Nikon E800 microscope equipped with a Hamamatsu Orca ER CCD camera using OpenLab imaging software. NIH Image J software was used to measure germline tumor growth in treated and untreated animals. Tumor area was measured by outlining the entire DAPI-stained tumor.

[2] = system: C. elegans fem-1(hc17) sterile adults; experiment: Adult survival assay of sterile fem-1(hc17) adults on compound-supplemented medium; type: in vivo, Caenorhabditis elegans
Description: For survival assays, young adult (day 0) animals were transferred onto fresh medium supplemented with the test compound at a range of concentrations. The compounds were tested at indicated concentrations in the growth medium (below). C. elegans nematodes are surrounded by a thick collagenous cuticle and are therefore relatively impermeable to environmental compounds. […] Survival was scored every 2–3 days as the ability to move in response to a gentle mechanical stimulus. During the first week of adulthood, C. elegans hermaphrodites are reproductively competent and normally produce 200–300 progeny. Since progeny production would complicate survival analysis, these experiments were performed using fem-1(hc17) animals that are sterile due to a spermatogenesis defect.
as §1, with “The Rf values for pterostilbene, 3-hydroxy-5,4'-dimethoxystilbene, pinostilbene and desoxyrhapontigenin are 0.61, 0.57, 0.28, and 0.20, respectively.” left out
For survival analyses, synchronized populations of sterile fem-1(hc17) hermaphrodites were obtained by first transferring several fertile hermaphrodites to a fresh plate at 25°C and allowing them to lay eggs for several hours. The parent hermaphrodites were removed and embryos were allowed to develop into sterile adults at 25°C, which takes approximately 48 hours. On the first day of adulthood, referred to as day 0, sterile adults were transferred onto fresh media supplemented with stilbenes at indicated concentrations, and maintained at 25°C. Adult survival was scored every 2–3 days by the animal's ability to move in response to a gentle mechanical stimulus. Statistical analysis of survival was performed using the JMP software package.

COc1ccc(/C=C/c2cc(OC)cc(OC)c2)cc1 [Resveratrol-trimethylether, resveratrol-trimethylether]
effect on tumor size (in words) [1]: consistent reductions in tumor size | Mean lifespan, Treated ([2]; Trial 1, 100 μM in medium, from day 0 of adulthood, 25°C, control 12.16 days): 9.7 days | Relative survival ([2]; Trial 1, 100 μM, treated vs control mean lifespan): 80% | Relative survival ([2]; Trial 4, 20 μM): 69% | Mean lifespan, Treated ([2]; Trial 4, 20 μM, control 11.26 days): 7.72 days | Relative survival ([2]; Trial 4, 40 μM): 69% | Mean lifespan, Treated ([2]; Trial 4, 40 μM, control 11.26 days): 7.72 days | Relative survival ([2]; Trial 4, 100 μM): 64% | Mean lifespan, Treated ([2]; Trial 4, 100 μM, control 11.26 days): 7.18 days | Relative survival ([2]; Trial 5, 5 μM): 102% | Mean lifespan, Treated ([2]; Trial 5, 5 μM, control 18.49 days): 18.83 days | Relative survival ([2]; Trial 5, 20 μM): 89% | Mean lifespan, Treated ([2]; Trial 5, 20 μM, control 18.49 days): 16.41 days | Relative survival ([2]; Trial 5, 100 μM): 82% | Mean lifespan, Treated ([2]; Trial 5, 100 μM, control 18.49 days): 15.18 days | Relative survival ([2]; Trial 6, 20 μM): 59% | Mean lifespan, Treated ([2]; Trial 6, 20 μM, control 15.32 days): 9.02 days | Relative survival ([2]; Trial 6, 40 μM): 52% | Mean lifespan, Treated ([2]; Trial 6, 40 μM, control 15.32 days): 7.98 days | Relative survival ([2]; Trial 6, 100 μM): 49% | Mean lifespan, Treated ([2]; Trial 6, 100 μM, control 15.32 days): 7.54 days
